Data published in publication PMC2858705 (PLoS Pathogens, 2010).
“And” between values parts separate entries of the source, which are not always exact repeats. Equal values may be shown once. Read-outs that look alike come from different tables or passages of the source.

How the values were obtained:
[1] = target: SARS-CoV nsp14 N7-MTase (Severe acute respiratory syndrome coronavirus, UniProt P0C6X7); assay: biochemical; type: biochemical
[2] = system: SARS-CoV; conditions: infected cells; cited from earlier work
[3] = target: SARS-CoV nsp10/nsp16 2'O-MTase (Severe acute respiratory syndrome coronavirus, UniProt P0C6X7); assay: biochemical; type: biochemical
[4] = target: VV:2'O-MTase; conditions: cited from earlier work
[5] = target: VV:N7-MTase; conditions: cited from earlier work
[6] = target: DV:NS5MTase; conditions: read-out: IC50 2'O-MTase activity of DV:NS5MTase; cited from earlier work

Question: What does the source list for `O=C(O)C1=CC(=C(c2ccc(O)c(C(=O)O)c2)c2ccc(O)c(C(=O)O)c2)C=CC1=O` [ATA, aurintricarboxylic acid]?
Answer: IC50 N7-MTase activity of nsp14 [1]: micromolar range; inhibition of nsp14 N7-MTase at 100 µM (in words) [1]: efficiently inhibited; IC50 ([1]; IC50 N7-MTase activity of nsp14): 6.4 µM and 2.1 µM; inhibition of SARS-CoV replication [2]: inhibit SARS-CoV replication; IC50 2'O-MTase activity of nsp10/nsp16 [3]: micromolar range; inhibition of nsp16/nsp10 2'O-MTase at 100 µM (in words) [3]: efficiently inhibited; IC50 ([3]; IC50 2'O-MTase activity of nsp10/nsp16): 2.1 µM and 6.4 µM

Question: With `Nc1ncnc2c1ncn2[C@@H]1O[C@H](CSCC[C@H](N)C(=O)O)[C@@H](O)[C@H]1O` [AdoHcy, S-adenosyl-l-homocysteine] as the compound, how does the “inhibition of nsp14 N7-MTase at 100 µM (in words)” value [1] read?
Answer: efficiently inhibited

Question: What about the IC50 ([1]; read-out: IC50 N7-MTase activity of nsp14) of the same compound?
Answer: 16 µM

Question: And the Ki [4]?
Answer: 0.5 µM

Question: What about the “inhibition of nsp16/nsp10 2'O-MTase at 100 µM (in words)” value [3] of the same compound?
Answer: efficiently inhibited

Question: And the IC50 ([3]; read-out: IC50 2'O-MTase activity of nsp10/nsp16)?
Answer: 12 µM

Question: And the Ki [5]?
Answer: 1 µM

Question: Which “inhibition of nsp14 N7-MTase at 100 µM” value [1] does the source give for `Nc1nc2c(ncn2[C@@H]2O[C@H](COP(=O)(O)OP(=O)(O)OP(=O)(O)OC[C@H]3O[C@@H](n4cnc5c(N)ncnc54)[C@H](O)[C@@H]3O)[C@@H](O)[C@H]2O)c(=O)[nH]1` [GpppA] here?
Answer: 50%

Question: What about the “inhibition of nsp16/nsp10 2'O-MTase at 100 µM” value [3] of the same compound?
Answer: 50%

Question: Which results are given for `Cn1c[n+]([C@@H]2O[C@H](COP(=O)(O)OP(=O)(O)OP(=O)(O)OC[C@H]3O[C@@H](n4cnc5c(N)ncnc54)[C@H](O)[C@@H]3O)[C@@H](O)[C@H]2O)c2nc(N)[nH]c(=O)c21` [^7MeGpppA]?
Answer: inhibition of nsp14 N7-MTase at 100 µM [1]: 50%; inhibition of nsp16/nsp10 2'O-MTase at 100 µM [3]: 50%

Question: What does the source list for `Nc1ncnc2c1ncn2[C@@H]1O[C@H](C[C@@H](N)CC[C@H](N)C(=O)O)[C@@H](O)[C@H]1O` [sinefungin, adenosyl-ornithine]?
Answer: IC50 [6]: 0.42 µM and 0.63 µM; IC50 [4]: 0.0395 µM; IC50 [5]: 0.012 µM
